Experiments:
[1] = tested on: MIAPaCa-2 cell line; assay: Cytotoxicity assay (MTT, 72 hours, daily administration) in MIAPaCa-2; settings: Homo sapiens, MIA PaCa-2, read-out: % VIABILITY ± S.D.
Procedure: Human pancreatic ductal adenocarcinoma (PANC-1 and MIAPaCa-2) cell lines were purchased by Sigma Aldrich (Milan, Italy) and cultured in DMEM high glucose medium (EuroClone, Milan, Italy) supplemented with 10% of fetal bovine serum (FBS), 2 mM L-glutamine, 100 IU/mL penicillin, 100 mg streptomycin and 1 mM sodium pyruvate. Cell lines were maintained at 37° C. with 5% CO2 and 95% of humidity.
3×10^4 cells/mL were seeded in 96-well plates in a final volume of 100 L/well. After one day of incubation, compounds or vehicles, alone or in combination, were added and six replicates were used for each treatment and all experiments were repeated three times. In all the experiments, the treatment was daily added, after washing with fresh medium. After 72 hours cell viability was investigated by adding 0.8 mg/mL of 3-[4,5-dimethylthiazol-2-yl]-2,5 diphenyl tetrazolium bromide (MTT) (Sigma Aldrich) to the media. After 3 h the supernatant was removed, and the pellet of salt crystals was solubilized with 100 μL/well of DMSO. The absorbance of the sample against a background control was measured at 570 nm using an ELISA reader microliter plate (BioTek Instruments, Winooski, VT, USA).
Cytotoxicity in PDAC cell lines: The effect of CBD, MLT and AKBA in reducing cell viability was evaluated at 72 hours, post daily administration, in PDAC cell lines. Cells were treated with different doses of CBD, MLT and AKBA (up to 1 mg) and percentage of cell viability was evaluated by the MTT assay. […] The compounds were administered daily for 72 hours, as in previous experiments at the desired doses. […] MTT assay was used to analyse the cell cytotoxicity.

[2] = tested on: pancreatic adenocarcinoma associated genes; assay: TaqMan Array gene expression in MIAPaCa-2, normalized for GAPDH; type: cell-based, Human; settings: Mia-PACA-2, 24 hs, CBD 3.8, MLT 200, AKBA 7.5 micrograms/ml
Procedure: Total RNA from untreated or CBD, MLT, AKBA alone and in combination treated cell lines was extracted using Rneasy Mini kit (Qiagen, Milan, Italy). One microgram of total RNA from each sample was subjected to reverse transcription in a total volume of 20 μL using the High-Capacity cDNA Archive Kit (Applied Biosystem, Foster City, […], USA) according to the instructions. cDNAs were analyzed by qRT-PCR performed using an IQ5 Multicolor Real time PCR Detection system. Quantitative real-time gene expression was performed with the TaqMan® Array Human Pancreatic Adenocarcinoma 96-well Plate, containing 92 assays to pancreatic adenocarcinoma associated genes and 4 assays to candidate endogenous control genes, was purchased (Thermo Fisher, Grand Island, NY, USA) and used to evaluate the treatments in modulating PDAC-related genes (Table 1). Measurement of different housekeeping genes (GAPDH; HPRT1; GUSB) on the samples was used to normalize mRNA content. The gene expression levels of treated cell lines were expressed as relative fold compared with untreated or vehicle-treated cells.
To elucidate the molecular events induced by CBD, MLT and AKBA alone and in combination, 92 genes involved in PDAC progression and aggressiveness were evaluated by Taqman Array. Both cell lines were treated with CBD, MLT and AKBA alone and in combination, and the molecular pathways of PDAC associated gene were evaluated.
Target mRNA levels were normalized for GAPDH expression.

[3] = normalized for GAPDH, Akt pathways
[4] = normalized for GAPDH, Akt-pathways
[5] = normalized for GAPDH, DNA repair
[6] = normalized for GAPDH, NfkB pathways
[7] = normalized for GAPDH, Ras pathways
[8] = normalized for GAPDH, TGF patways
[9] = normalized for GAPDH, TGF-patways
[10] = normalized for GAPDH, angiogenesis
[11] = normalized for GAPDH, apoptosis
[12] = normalized for GAPDH, cell cycle
[13] = normalized for GAPDH, inflammation
[14] = normalized for GAPDH, proliferation

COc1ccc2[nH]cc(CCNC(C)=O)c2c1 [MLT, N-[2-(5-methoxy-1H-indol-3-yl)ethyl]acetamide]
viability at 100 µg/mL [1]: 100 ± 8.8% | viability at 200 µg/mL [1]: 87.8 ± 8.2% | viability at 400 µg/mL [1]: 78.2 ± 8.5% | viability at 800 µg/mL [1]: 12.5 ± 0.8% | GAPDH relative expression ([2]; GAPDH is the normalizer): 1.00 | PK3CB relative expression [2, 3]: 0.15 | PK3CD relative expression [2, 3]: 0.07 | AKT1 relative expression [2, 4]: 0.09 | AKT2 relative expression [2, 4]: 0.55 | AKT3 relative expression [2, 4]: 0.00 | IGF1 relative expression [2, 4]: 0.00 | PK3CA relative expression [2, 4]: 0.00 | PK3R1 relative expression [2, 4]: 0.03 | BRCA2 relative expression [2, 5]: 0.40 | MDM2 relative expression [2, 5]: 0.00 | TP53 relative expression [2, 5]: 0.26 | HSP90AA1 relative expression ([2]; normalized for GAPDH, Heat sock protein): 0.00 | NFKB1 relative expression [2, 6]: 0.11 | NFKB2 relative expression [2, 6]: 0.02 | REL relative expression [2, 6]: 0.09 | RELA relative expression [2, 6]: 0.00 | RELB relative expression [2, 6]: 0.06 | RHOA relative expression [2, 6]: 0.07 | RHOB relative expression [2, 6]: 0.03 | BRAF relative expression [2, 7]: 0.16 | E2F1 relative expression [2, 7]: 0.16 | E2F3 relative expression [2, 7]: 0.09 | E2F4 relative expression [2, 7]: 0.19 | EGF relative expression [2, 7]: 0.00 | EGFR relative expression [2, 7]: 0.19 | ELK1 relative expression [2, 7]: 0.11 | ERBB2 relative expression [2, 7]: 0.05 | GRB2 relative expression [2, 7]: 0.28 | HBEGF relative expression [2, 7]: 0.46 | KRAS relative expression [2, 7]: 0.01 | MAP2K1 relative expression [2, 7]: 0.04 | MAP2K2 relative expression [2, 7]: 0.09 | MAPK1 relative expression [2, 7]: 0.03 | MAPK3 relative expression [2, 7]: 0.01 | RAF1 relative expression [2, 7]: 0.07 | RB1 relative expression [2, 7]: 0.03 | SOS1 relative expression [2, 7]: 0.07 | TGFB2 relative expression [2, 8]: 0.00 | TGFB3 relative expression [2, 8]: 0.00 | TGFBR1 relative expression [2, 8]: 0.00 | SMAD2 relative expression [2, 9]: 0.21 | SMAD3 relative expression [2, 9]: 0.24 | SMAD4 relative expression [2, 9]: 0.09 | TGFA relative expression [2, 9]: 0.20 | TGFB1 relative expression [2, 9]: 0.04 | TGFBR2 relative expression [2, 9]: 0.00 | FIGF relative expression [2, 10]: 0.14 | VEGFA relative expression [2, 10]: 0.02 | VEGFB relative expression [2, 10]: 0.04 | VEGFC relative expression [2, 10]: 0.00 | BCL2L1 relative expression [2, 11]: 0.26 | BCL2 relative expression [2, 11]: 0.00 | BIRC5 relative expression [2, 11]: 0.16 | CCNA2 relative expression [2, 12]: 0.09 | CCNB1 relative expression [2, 12]: 0.40 | CCND1 relative expression [2, 12]: 0.12 | CCND2 relative expression [2, 12]: 0.00 | CCNE1 relative expression [2, 12]: 0.13 | CCNE2 relative expression [2, 12]: 0.09 | CDC42 relative expression [2, 12]: 0.00 | CDK2 relative expression [2, 12]: 0.09 | CDK4 relative expression [2, 12]: 0.20 | CDKN1A relative expression [2, 12]: 0.08 | CDKN1B relative expression [2, 12]: 0.11 | CDKN2A relative expression [2, 12]: 0.20 | CDKN2B relative expression [2, 12]: 1.98 | CDKN2C relative expression [2, 12]: 0.17 | CDKN2D relative expression [2, 12]: 0.05 | IL6 relative expression [2, 13]: 0.00 | JAK1 relative expression [2, 13]: 0.02 | JAK2 relative expression [2, 13]: 0.02 | JAK3 relative expression [2, 13]: 0.00 | STAT1 relative expression [2, 13]: 0.13 | STAT2 relative expression [2, 13]: 0.00 | STAT3 relative expression [2, 13]: 0.08 | STAT6 relative expression [2, 13]: 0.01 | STATSB relative expression [2, 13]: 0.49 | MMP1 relative expression ([2]; normalized for GAPDH, invasion): 0.08 | MMP2 relative expression ([2]; normalized for GAPDH, invasion): 0.00 | MMP3 relative expression ([2]; normalized for GAPDH, invasion): 0.01 | MMP7 relative expression ([2]; normalized for GAPDH, invasion): 0.01 | MMP9 relative expression ([2]; normalized for GAPDH, invasion): 0.04 | PTGS2 relative expression ([2]; normalized for GAPDH, invasion): 0.03 | RAC1 relative expression ([2]; normalized for GAPDH, invasion): 0.00 | RAC2 relative expression ([2]; normalized for GAPDH, invasion): 0.01 | KIT relative expression [2, 14]: 0.01 | NOTCH1 relative expression [2, 14]: 0.38 | SRC relative expression [2, 14]: 0.07

From patent US20240180872A1, “METHODS AND COMPOUNDS OF CANNABIDIOL, MELATONIN AND AKBA FOR TREATING PANCREATIC CANCER” (priority 2021, published 2024)
